The subject of assay [1] is wild-type Arabidopsis thaliana plants. The experiment in a line: Herbicide tolerance of Arabidopsis thaliana plants (spray, resistance classes counted). It is filed as in vivo. The source says: T1 transformants were initially selected from the background of untransformed seeds using a glufosinate selection scheme. About 40000 T1 seeds were screened, and 380 T1 positive transformants (PAT gene) were identified with a transformation efficiency of about 0.95%. The plants that were transformed with the recombinant expression vector DBN100632 were Arabidopsis thaliana plants having an ALT-1-01 nucleotide sequence located in the cytoplasm introduced (At cytoplasmic ALT-1-01), and the plants that were transformed with the recombinant expression vector DBN100631 were Arabidopsis thaliana plants having an ALT-1-01 nucleotide sequence located in the chloroplast introduced (At chloroplastic ALT-1-01); the plants that were transformed with the recombinant expression vector DBN100634 were Arabidopsis thaliana plants having an ALT-2-01 nucleotide sequence located in the cytoplasm introduced (At cytoplasmic ALT-2-01), and the plants that were transformed with the recombinant expression vector DBN100633 were Arabidopsis thaliana plants having an ALT-2-01 nucleotide sequence located in the chloroplast introduced (At chloroplastic ALT-2-01); and the plants that were transformed with the recombinant expression vector DBN100636 were Arabidopsis thaliana plants having an ALT-3-01 nucleotide sequence located in the cytoplasm introduced (At cytoplasmic ALT-3-01), and the plants that were transformed with the recombinant expression vector DBN100635 were Arabidopsis thaliana plants having an ALT-3-01 nucleotide sequence located in the chloroplast introduced (At chloroplastic ALT-3-01). The herbicide tolerance effects of At cytoplasmic ALT-1-01 T1 plants, At chloroplastic ALT-1-01 T1 plants, At cytoplasmic ALT-2-01 T1 plants, At chloroplastic ALT-2-01 T1 plants, At cytoplasmic ALT-3-01 T1 plants, At chloroplastic ALT-3-01 T1 plants and wild-type Arabidopsis thaliana plants on halosulfuron-methyl were detected (14 days after sowing), respectively.
(§1) At cytoplasmic ALT-1-01 T1 plants, At chloroplastic ALT-1-01 T1 plants, At cytoplasmic ALT-2-01 T1 plants, At chloroplastic ALT-2-01 T1 plants, At cytoplasmic ALT-3-01 T1 plants, At chloroplastic ALT-3-01 T1 plants and wild-type Arabidopsis thaliana plants were sprayed with halosulfuron-methyl (34 g ai/ha, 1-fold field concentration) and a blank solvent (water), respectively. Plants were counted for the resistance situations 14 days after spraying: those having a consistent growth status with the blank solvent (water) group after 14 days were classified as highly resistant plants, those having a bolting height less than ½ of that of the blank solvent (water) group after 14 days were classified as moderately resistant plants, those still not capable of bolting after 14 days were classified as poorly resistant plants, and those dead after 14 days were classified as non-resistant plants. Since each Arabidopsis thaliana T1 plant was an independent transformation event, a significant difference in individual T1 responses could be expected at a given dose.
At cytoplasmic ALT-1-01 T1 plants, At chloroplastic ALT-1-01 T1 plants, At cytoplasmic ALT-2-01 T1 plants, At chloroplastic ALT-2-01 T1 plants, At cytoplasmic ALT-3-01 T1 plants, At chloroplastic ALT-3-01 T1 plants and wild-type Arabidopsis thaliana plants in Example 4 were sprayed with iodosulfuron-methyl (10 g ai/ha, 1-fold field concentration), mesosulfuron (14 g ai/ha, 1-fold field concentration) and oxasulfuron (60 g ai/ha, 1-fold field concentration), respectively, in addition to halosulfuron-methyl (34 g ai/ha, 1-fold field concentration) and the blank solvent (water). […]

For assay [2], the system named is all the transformed Arabidopsis thaliana T1 plants (ALT-1, ALT-2 and ALT-3). The experiment in a line: Herbicide tolerance of Arabidopsis thaliana T1 plants. It is filed as in vivo. The settings on record: 34 g ai/ha; summary of Table 1 and FIG. 4.
Excerpt: as §1
At cytoplasmic ALT-1-01 T1 plants, At chloroplastic ALT-1-01 T1 plants, At cytoplasmic ALT-2-01 T1 plants, At chloroplastic ALT-2-01 T1 plants, At cytoplasmic ALT-3-01 T1 plants, At chloroplastic ALT-3-01 T1 plants and wild-type Arabidopsis thaliana plants in Example 4 were sprayed with iodosulfuron-methyl (10 g ai/ha, 1-fold field concentration), mesosulfuron (14 g ai/ha, 1-fold field concentration) and oxasulfuron (60 g ai/ha, 1-fold field concentration), respectively, in addition to halosulfuron-methyl (34 g ai/ha, 1-fold field concentration) and the blank solvent (water). Plants were counted for the resistance situation 14 days after spraying: those having a consistent growth status with the blank solvent (water) group after 14 days were classified as highly resistant plants, those having a bolting height less than ½ of that of the blank solvent (water) group after 14 days were classified as moderately resistant plants, those still not capable of bolting after 14 days were classified as poorly resistant plants, and those dead after 14 days were classified as non-resistant plants. Since each Arabidopsis thaliana T1 plant was an independent transformation event, a significant difference in individual T1 responses could be expected at a given dose.

[3] abbreviates: 18 g ai/ha (1x Hal.), number of plants 14 days after spraying, Total 32.

For the compound `COC(=O)c1c(Cl)nn(C)c1S(=O)(=O)NC(=O)Nc1nc(OC)cc(OC)n1` [halosulfuron-methyl, 3-chlorine-5-(4,6-dimethoxypyrimidine-2-aminocarbonylaminosulphonyl)-1-methylpyrazole-4-carboxylic acid methyl ester], in assay [1] (setting [3]), the Highly resistant was 0, the Moderately resistant is on record as 0, the Non-resistant was 32 and the Poorly resistant came to 0. Also, the “tolerance of the plants to the herbicide” value in assay [1] (34 g ai/ha, summary of Table 1 and FIG. 4) is given as “none of the wild-type Arabidopsis thaliana plants was tolerant”. Besides, the “tolerance of the plants to the herbicide” value in assay [2] is on record as “conferred halosulfuron-methyl herbicide tolerance to individual Arabidopsis thaliana plants”.

(Values after patent US20190029257A1, “APPLICATION FOR HERBICIDE-TOLERANT PROTEIN” (BEIJING DABEINONG TECHNOLOGY GROUP CO., LTD., priority 2016, published 2019).)
